Measurements taken from article PMC8998492 (2022).

What was measured:
[1] = tested on: c-myc promoter i-motif (DNA, i motif) CCCCACCTTCCCCACCCTCCCCACCCTCCCC; experiment: fluorescent displacement (FID), microplate reader; settings: 100 mM KCl; 1 × BPES; tracer G59 displaced
[2] = tested on: 5'-biotin c-myc G-quadruplex (DNA, G4) TTGAGGGTGGGTAGGGTGGGTAAA; experiment: SPR; settings: 100 mM KCl; 20 mM Tris-HCl pH 7.4, 25 °C; DNA immobilised
[3] = tested on: 5'-biotin c-myc (i-motif) (DNA, i motif) CCCCACCTTCCCCACCCTCCCCACCCTCCCC; experiment: SPR; settings: 100 mM KCl; 20 mM MES pH 5.5, 0.05% Tween-20, 25 °C; DNA immobilised
[4] = tested on: SS26 (DNA, single strand) ATACGATGCTTCACGGTGCTATCTG; experiment: fluorescence titration; settings: 100 mM KCl; 20 mM Tris-HCl pH 7.4; also unstained in PAGE
[5] = tested on: c-myc-C25T (DNA, i motif) CCCCACCTTCCCCACCCTCCCCACTCTCCCC; experiment: fluorescence enhancement; settings: 100 mM KCl; 1 × BPES pH 5.5
[6] = tested on: DS26 (DNA, duplex) CAATCGGATCGAATTCGATCCGATTG; experiment: fluorescence titration; settings: 100 mM KCl; 20 mM Tris-HCl pH 7.4; also unstained in PAGE
[7] = tested on: c-myc-C16G (DNA, i motif) CCCCACCTTCCCCACGCTCCCCACCCTCCCC; experiment: fluorescence enhancement; settings: 100 mM KCl; 1 × BPES pH 5.5
[8] = tested on: c-myc-C7G (DNA, i motif) CCCCACGTTCCCCACCCTCCCCACCCTCCCC; experiment: fluorescence enhancement; settings: 100 mM KCl; 1 × BPES pH 5.5
[9] = tested on: c-myc-C7T (DNA, i motif) CCCCACTTTCCCCACCCTCCCCACCCTCCCC; experiment: fluorescence enhancement; settings: 100 mM KCl; 1 × BPES pH 5.5
[10] = tested on: c-myc-C16A (DNA, i motif) CCCCACCTTCCCCACACTCCCCACCCTCCCC; experiment: fluorescence enhancement; settings: 100 mM KCl; 1 × BPES pH 5.5
[11] = tested on: c-myc-C16T (DNA, i motif) CCCCACCTTCCCCACTCTCCCCACCCTCCCC; experiment: fluorescence enhancement; settings: 100 mM KCl; 1 × BPES pH 5.5
[12] = tested on: c-myc-C25A (DNA, i motif) CCCCACCTTCCCCACCCTCCCCACACTCCCC; experiment: fluorescence enhancement; settings: 100 mM KCl; 1 × BPES pH 5.5
[13] = tested on: c-myc promoter i-motif (DNA, i motif) CCCCACCTTCCCCACCCTCCCCACCCTCCCC; experiment: CD melting; settings: 100 mM KCl; 1 × BPES pH 5.5; 2 μM DNA, 10 μM G59; Tm 53.1 to 59.9 °C
[14] = tested on: c-myc-C7A (DNA, i motif) CCCCACATTCCCCACCCTCCCCACCCTCCCC; experiment: fluorescence enhancement; settings: 100 mM KCl; 1 × BPES pH 5.5
[15] = tested on: c-myc promoter i-motif (DNA, i motif) CCCCACCTTCCCCACCCTCCCCACCCTCCCC; experiment: fluorescence enhancement; settings: 100 mM KCl; 1 × BPES pH 5.5
[16] = tested on: c-myc-C25G (DNA, i motif) CCCCACCTTCCCCACCCTCCCCACGCTCCCC; experiment: fluorescence enhancement; settings: 100 mM KCl; 1 × BPES pH 5.5
[17] = tested on: c-myc promoter i-motif (DNA, i motif) CCCCACCTTCCCCACCCTCCCCACCCTCCCC; experiment: ITC; settings: 100 μM G59 injected into 4 μM DNA; KD = 1/Ka (Ka 5.94×10^5 M-1)
[18] = tested on: c-myc promoter i-motif (DNA, i motif) CCCCACCTTCCCCACCCTCCCCACCCTCCCC; experiment: fluorescent displacement (FID); settings: 100 mM KCl; 1 × BPES pH 5.5; tracer 1 μM G59 displaced, 2 μM DNA; 5 eq (5 μM) 3be

`C[C@H]1O[C@@H](O[C@H]2CC[C@@]3(C)[C@@H](CC[C@]4(C)[C@@H]3C=CC3=C5CC(C)(C)CC[C@]5(CO)[C@H](O)C[C@]34C)[C@]2(C)CO)[C@H](O)[C@@H](O[C@@H]2O[C@H](CO)[C@@H](O)[C@H](O)[C@H]2O)[C@H]1O` was tested, and the binding [1] was “yes”, the KD [2] was 46.2 µM and the KD [3] was 9.52 µM.
`O=C1c2cccc3c(-c4ccc5c(c4)c4cc(-c6ccc7c8c(cccc68)C(=O)N(CCN6CCCC6)C7=O)ccc4n5CCN4CCCC4)ccc(c23)C(=O)N1CCN1CCCC1` was tested, and the binding [4] was “weak”, the FI/F0 [5] was 17.92 and the binding [6] was “weak”. It also gave an FI/F0 [7] of 6.03, an FI/F0 [8] of 5.44 and an FI/F0 [9] of 18.35. For the same compound, the FI/F0 [10] was 15.2, the FI/F0 [11] was 18.23 and the FI/F0 [12] was 17.15. The ΔTm [13] was 6.8 °C, the FI/F0 [14] was 13.35 and the FI/F0 [15] was 17.98. For the same compound, the FI/F0 [16] was 6.59 and the KD [17] was 1.68 µM.
Compound `c1ccc2c(c1)c1cc(-c3cn(CCN4CCCC4)nn3)ccc1n2CCN1CCCC1` has a relative replacement ratio [18] of 42.09%.
